Experimental data taken from US9745328B2, “Flap modulators” (JANSSEN PHARMACEUTICA NV, priority 2013, dated 2017).
Structures can show the parent of a compound that is named as a salt.

Each compound was assayed against human FLAP (Homo sapiens (Human), UniProt P20292) (assay: FLAP binding assay (HTRF format)). Conditions: human FLAP wild type, Table 6 (additional runs).
Outline: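 HTRF ratio read-out; two independent plates, samples in duplicate on each, values averaged across plates.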

human FLAP, sequence (P20292 whole entry): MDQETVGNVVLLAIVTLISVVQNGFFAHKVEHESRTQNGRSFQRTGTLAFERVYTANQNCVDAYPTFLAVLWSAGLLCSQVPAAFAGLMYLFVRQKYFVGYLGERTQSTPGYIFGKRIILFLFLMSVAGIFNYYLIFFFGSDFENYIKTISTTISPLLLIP

Going from `N#Cc1cc(Oc2ccccc2-c2ccc(-c3cnc(N)nc3)c(F)c2)ccn1` [Example 538, 4-{[4′-(2-Aminopyrimidin-5-yl)-3′-fluorobiphenyl-2-yl]oxy}pyridine-2-carbonitrile] to `Nc1cnc(Oc2ccccc2-c2ccc(-c3cnc(N)nc3)c(F)c2)nc1` [Example 615, 5-{2′-[(5-Aminopyrimidin-2-yl)oxy]-3-fluorobiphenyl-4-yl}pyrimidin-2-amine], the Ki rises from 20.2 nM to 50.9 nM (2.5-fold).

Compared with `Nc1cnc(-c2ccc(-c3ccccc3Oc3cc(N4CCC4)ncn3)cc2F)cn1` [Example 539, 5-{2′-[(6-Azetidin-1-ylpyrimidin-4-yl)oxy]-3-fluorobiphenyl-4-yl}pyrazin-2-amine], `Nc1cnc(Oc2ccccc2-c2ccc(-c3cnc(N)cn3)c(F)c2)nc1` [Example 614, 2-{[4′-(5-Aminopyrazin-2-yl)-3′-fluorobiphenyl-2-yl]oxy}pyrimidin-5-amine] is 6.1-fold higher in Ki: 1.6 nM for the first, 9.8 nM for the second. The first binds more tightly here.

First: COc1cnc(Oc2ccccc2-c2ccc(-c3cnc(N)nc3)c(F)c2)nc1 [Example 550, 5-{3-Fluoro-2′-[(5-methoxypyrimidin-2-yl)oxy]biphenyl-4-yl}pyrimidin-2-amine]
Second: Cc1cc(N)nc(Oc2ccccc2-c2ccc(-c3cnc(N)nc3)c(F)c2)n1 [Example 617, 5-{2′-[(4-Amino-6-methylpyrimidin-2-yl)oxy]-3-fluorobiphenyl-4-yl}pyrimidin-2-amine]
The Ki of the first is 95-fold lower: 1.7 nM for the first, 162 nM for the second.

Going from `Nc1cnc(-c2ccc(-c3ccc(C(F)(F)F)cc3Oc3ncccn3)cc2F)cn1` [Example 551, 5-[3-Fluoro-2′-(pyrimidin-2-yloxy)-4′-(trifluoromethyl)biphenyl-4-yl]pyrazin-2-amine] to `Nc1ncc(-c2ccc(-c3ccc(C(F)(F)F)cc3Oc3ncccn3)cc2F)cn1` [Example 552, 5-[3-Fluoro-2′-(pyrimidin-2-yloxy)-4′-(trifluoromethyl)biphenyl-4-yl]pyrimidin-2-amine], the Ki rises from 0.4 nM to 5.5 nM (14-fold).

First: COc1cc(C(F)(F)F)ccc1-c1ccc(-c2cnc(N)cn2)c(F)c1 [Example 553, 5-[3-fluoro-2′-methoxy-4′-(trifluoromethyl)biphenyl-4-yl]pyrazin-2-amine]
Second: Nc1cnc(-c2ccc(-c3ccc(C(F)(F)F)cc3Oc3ccnc(N)n3)cc2F)cn1 [Example 555, 4-{[4′-(5-Aminopyrazin-2-yl)-3′-fluoro-4-(trifluoromethyl)biphenyl-2-yl]oxy}pyrimidin-2-amine]
The Ki of the first is 12-fold higher: 19.3 nM for the first, 1.6 nM for the second. The second binds more tightly here.

First: Nc1cnc(-c2ccc(-c3ccc(C(F)(F)F)cc3Oc3nccc(N)n3)cc2F)cn1 [Example 556, 2-{[4′-(5-Aminopyrazin-2-yl)-3′-fluoro-4-(trifluoromethyl)biphenyl-2-yl]oxy}pyrimidin-4-amine]
Second: Nc1ccnc(Oc2cc(C(F)(F)F)ccc2-c2ccc(-c3cnc(N)nc3)c(F)c2)n1 [Example 559, 5-{2′-[(4-Aminopyrimidin-2-yl)oxy]-3-fluoro-4′-(trifluoromethyl)biphenyl-4-yl}pyrimidin-2-amine]
The Ki of the first is 2.1-fold lower: 0.7 nM for the first, 1.5 nM for the second. The first binds more tightly here.

First: Nc1cc(Oc2cc(C(F)(F)F)ccc2-c2ccc(-c3cnc(N)nc3)c(F)c2)ncn1 [Example 561, 5-{2′-[(6-Aminopyrimidin-4-yl)oxy]-3-fluoro-4′-(trifluoromethyl)biphenyl-4-yl}pyrimidin-2-amine]
Second: Nc1ncc(-c2ccc(-c3ccccc3Oc3cccc(C(F)(F)F)n3)cc2F)cn1 [Example 624, 5-(3-Fluoro-2′-{[6-(trifluoromethyl)pyridin-2-yl]oxy}biphenyl-4-yl)pyrimidin-2-amine]
The Ki of the first is 7.4-fold lower: 4.4 nM for the first, 32.7 nM for the second. The first binds more tightly here.

Going from `CC(C)(C)NS(=O)(=O)c1ccccc1-c1ccc(-c2cnc(N)cn2)cc1` [Example 571, 4′-(5-Aminopyrazin-2-yl)-N-tert-butylbiphenyl-2-sulfonamide] to `CC(C)(C)NS(=O)(=O)c1ccccc1-c1ccc(-c2cnc(N)cn2)cc1F` [Example 574, 4′-(5-Aminopyrazin-2-yl)-N-tert-butyl-2′-fluorobiphenyl-sultonamide], the Ki rises from 1.7 nM to 13.9 nM (8.2-fold).

First: Nc1nc(-c2ccc(-c3ccccc3S(=O)(=O)N3CCCC3)cc2F)cs1 [Example 579, 4-[3-Fluoro-2′-(pyrrolidin-1-ylsulfonyl)biphenyl-4-yl]-1,3-thiazol-2-amine]
Second: CC(C)(C)NS(=O)(=O)c1ccccc1-c1ccc(-c2ccc3[nH]nc(N)c3c2)c(F)c1 [Example 597, 4′-(3-Amino-1H-indazol-5-yl)-N-tert-butyl-3′-fluorobiphenyl-2-sulfonamide]
The Ki of the first is 26-fold lower: 95.1 nM for the first, ~2500 nM for the second. The first binds more tightly here.

Going from `Cc1cc(N)nc(Oc2ccccc2-c2ccc(-c3cnc(N)cn3)c(F)c2)n1` [Example 616, 2-{[4′-(5-Aminopyrazin-2-yl)-3′-fluorobiphenyl-2-yl]oxy}-6-methylpyrimidin-4-amine] to `N#Cc1ccccc1-c1ccc(-c2cnc(N)cn2)c(F)c1` [Example 701, 4′-(5-Aminopyrazin-2-yl)-3′-fluorobiphenyl-2-carbonitrile], the Ki rises from 16.4 nM to 132 nM (8-fold).

`Nc1cnc(-c2ccc(-c3cccnc3OC3CCNCC3)cc2F)cn1` [Example 645] and `Nc1ncc(-c2ccc(-c3cccnc3OC3CCNCC3)cc2F)cn1` [Example 646, 5-{2-Fluoro-4-[2-(piperidin-4-yloxy)pyridin-3-yl]phenyl}pyrimidin-2-amine] cannot be ordered by Ki: > 10000 nM for the first, > 10000 nM for the second.

Compared with `Nc1cnc(-c2ccc(-c3cccnc3OC3CCS(=O)(=O)CC3)cc2F)cn1` [Example 647, 5-(4-{2-[(1,1-Dioxidotetrahydro-2H-thiopyran4-yl)oxy]pyridin-3-yl}-2-fluorophenyl)pyrazin-2-amine], `Nc1ncc(-c2ccc(-c3cccnc3OC3CCS(=O)(=O)CC3)cc2F)cn1` [Example 648, 5-(4-{2-[(1,1-Dioxidotetranydro-2H-thiopyran-4-yl)oxy]pyridin-3-yl}-2-fluorophenyl)pyrimidin-2-amine] is 3.7-fold higher in Ki: 227 nM for the first, 834 nM for the second. The first binds more tightly here.

Going from `CC(C)(C)NS(=O)(=O)c1ccccc1-c1cnc(-c2cnc(N)nc2)c(F)c1` [Example 675, 2-[6-(2-Aminopyrimidin-5-yl)-5-fluoropyridin-3-yl]-N-tert-butylbenzenesulfonamide] to `C[C@H](NS(=O)(=O)c1ccccc1-c1ccc(-c2cnc(N)nc2)nc1)C(F)(F)F` [Example 685, 2-[6-(2-Aminopyrimidin-5-yl)pyridin-3-yl]-N-[(1S)-2,2,2-trifluoro-1-methylethyl]benzenesulfonamide trifluoroacetic acid salt], the Ki rises from 1 nM to 59.2 nM (59-fold).

Going from `Nc1cnc(-c2ccc(-c3ccc(Br)cc3F)cc2F)cn1` [Example 696, 5-(4′-Bromo-2′,3-difluoroblphenyl-4-yl)pyrazin-2-amine] to `C[C@H]1COCCN1C(=O)c1ccccc1-c1ccc(-c2cnc(N)cn2)c(F)c1` [Example 774, 5-(3-Fluoro-2′-{[(3S)-3-methylmorpholin-4-yl]carbonyl}biphenyl-4-yl)pyrazin-2-amine], the Ki rises from 141 nM to 1300 nM (9.2-fold).

Compared with `C[C@@H]1COCCN1C(=O)c1ccccc1-c1ccc(-c2cnc(N)cn2)c(F)c1` [Example 775, 5-(3-Fluoro-2′-{[(3R)-3-methylmorpholin-4-yl]carbonyl}biphenyyl-4-yl)pyrazin-2-amine], `C[C@H]1CN(C(=O)c2ccccc2-c2ccc(-c3cnc(N)cn3)c(F)c2)CCO1` [Example 776, 5-(3-Fluoro-2′-{[(2S)-2-methylmorpholin-4-yl]carbonyl}biphenyl-4-yl)pyrazin-2-amine] is 4.9-fold higher in Ki: 30.4 nM for the first, 150 nM for the second. The first binds more tightly here.

Compared with `C[C@H]1CN(C(=O)c2ccccc2-c2ccc(-c3cnc(N)nc3)c(F)c2)CCO1` [Example 777, 5-(3-Fluoro-2′-{[(2S)-2-methylmorpholin-4-yl]carbonyl}biphenyl-4-yl)pyrimidin-2-amine], `Nc1ncc(-c2ccc(-c3cccnc3S(=O)(=O)C3CCS(=O)(=O)CC3)cc2F)cn1` [Example 819, 4-((3-(4-(2-aminopyrimidin-5-yl)-3-fluorophenyl)pyridine-2-yl)sulfonyl)tetrahydro-2H-thiopyran 1,1-dioxide] is 22-fold lower in Ki: 1620 nM for the first, 74.3 nM for the second.

Same assay, conditions: human FLAP wild type, a calculated value of 0.000 indicates Ki less than 1 nM

In the case of `Nc1cnc(-c2ccc(-c3ccc(C(F)(F)F)cc3Oc3ncccn3)cc2F)cn1` [Example 551, 5-[3-Fluoro-2′-(pyrimidin-2-yloxy)-4′-(trifluoromethyl)biphenyl-4-yl]pyrazin-2-amine], the Ki is reported as < 1 nM.

What follows are compounds tested on leukotriene pathway in human whole blood (LTB4) (assay: Human whole blood assay (LTB4 levels after calcium ionophore A23187 stimulation)). Conditions: Homo sapiens, Table 6 (additional runs); human whole blood diluted 1:1, A23187 stimulation; read-out: Human Whole Blood LTB4 IC50 1:1.
Assay type: cell-based
Description: The ability of the compounds of the present invention to treat a FLAP-mediated disease and/or disorder, or associated symptoms or complications thereof, was determined using the following procedures. Binding assay data represent the average value obtained from two different assay plates, with samples run in duplicate on each plate. Human whole blood assay data represent a single replicate on an assay plate using whole blood from at least one healthy donor.
An in vitro cellular assay was performed using human whole blood collected in heparin-containing tubes, which was used to test the ability of compounds to modulate the leukotriene pathway in human whole blood. The blood was diluted 1:1 in RPMI medium, pre-incubated for 15 min at 37° Celsius with test compounds at various concentrations, and then stimulated with calcium ionophore, A23187 (7 μg/mL), for 30 min at 37° Celsius. The samples were then centrifuged and plasma was removed. The plasma was diluted in assay buffer and LTB4 levels were measured using a commercial kit (Enzo Life Sciences). The concentration of each compound that was required for half-maximal inhibition (modulation) of recombinant enzyme activity (IC50) was calculated by a 4-parameter equation using the program GraphPad Prism (GraphPad software).

First: C[C@@H](CO)NS(=O)(=O)c1ccccc1-c1ccc(-c2cnc(N)cn2)c(F)c1 [Example 25, (R)-4′-(5-Aminopyrazin-2-yl)-3′-fluoro-N-[(1R)-2-hydroxy-1-methylethyl]piphenyl-2-sulfonamicie]
Second: C[C@@H](CO)NS(=O)(=O)c1ccccc1-c1ccc(-c2ccc(N)nc2)c(F)c1 [Example 347, (S)-4′-(6-aminopyridin-3-yl)-3′-fluoro-N-(1-hydroxypropan-2-yl)-[1,1′-biphenyl]-2-sulfonamide]
The IC50 of the first is 6.1-fold lower: 26.3 nM for the first, 161 nM for the second.

Compared with `Nc1cnc(-c2ccc(-c3ccccc3S(=O)(=O)N3CC[C@@H](N)C3)cc2F)cn1` [Example 92, (R)-5-(2′-((3-aminopyrrolidin-1-yl)sulfonyl)-3-fluoro-[1,1′-biphenyl]-4-yl)pyrazin-2-amine], `C[C@H](O)CNS(=O)(=O)c1ccccc1-c1ccc(-c2cnc(N)nc2)c(F)c1` [Example 279, 4′-(2-Aminopyrimidin-5-yl)-3′-fluoro-N-[(2S)-2-hydroxypropyl]biphenyl-2-sulfonamide trifluoroacetic acid salt] is 2.6-fold lower in IC50: 309 nM for the first, 118 nM for the second. The second is the more potent here.

Same assay, conditions: Homo sapiens, human whole blood diluted 1:1 in RPMI, A23187 stimulation, LTB4; read-out: Human Whole Blood LTB4 IC50 1:1

`C[C@@H](CO)NS(=O)(=O)c1ccccc1-c1ccc(-c2ccc(N)nc2)c(F)c1` [Example 347, (S)-4′-(6-aminopyridin-3-yl)-3′-fluoro-N-(1-hydroxypropan-2-yl)-[1,1′-biphenyl]-2-sulfonamide] showed an IC50 of 161 nM.
